In patent US20050276767A1, “Composition containing an oily phase and a naphthopyran dye, cosmetic treatment processes” (L'OREAL, priority 2002, published 2005):
Values belong to the compound of their own block, whether it stands above or below them.

Legend:
Format in all cases: physicochemical
[1] = ΔE before/after UVA irradiation of dyes at 1% in a white lipstick base (Example 5); conditions: 1% by weight dye in white lipstick base; UVA 2 mW/cm^2 for two minutes
Description: The ΔE (before and after UV irradiation for 2 minutes) of various photochromic dyes according to the invention was determined, at 1% by weight in a white lipstick base comprising:
A composition comprising 1% of dye according to the invention and 99% of the above base is thus prepared.
(§1) The L, a and b measurements were performed on a Leneta brand contrast card of reference Form 1A Penopac, for a composition spread to a thickness of 50 microns.
(§2) The reflection measurements were performed using a Minolta 3700D spectrocolorimeter.
(§3) The initial trichromatic coordinates of the composition before irradiation (L0, a0 and b0) were thus determined.
(§4) The compositions were then subjected to a UV irradiation (flux of 2 mW/cm^2 of a UVA radiation) for two minutes and then, immediately after stopping the irradiation, the trichromatic coordinates after irradiation (L, a and b) were determined. Less than 5 seconds elapsed between the stopping of the irradiation and the determination of the new coordinates.
(§5) The ΔE was then calculated in the following manner: ΔE=[(L−L0)^2+(a−a0)^2+(b−b0)^2]^1/2

[2] = ΔE of oil + dye mixtures after UVA irradiation (Example 7); parameters: key: ΔE = [(Lm′−Lm)^2+(am′−am)^2+(bm′−bm)^2]^1/2, before vs after UVA; conditions: UVA 2 mW/cm^2 for 2 minutes
Description: The mixtures prepared in Example 6 were irradiated with UV (flux of 2 mW/cm^2 of UVA) for 2 minutes.
The trichromatic coordinates of the mixture after irradiation (Lm′, am′ and bm′) were again determined, as in Example 2, and the ΔE was calculated in the following manner: ΔE=[(Lm′−Lm)^2+(am′−am)^2+(bm′−bm)^2]^1/2.
Less than 5 seconds elapsed between stopping the irradiation and determining the new coordinates.

[3] = Solubility of the dye in various silicone oils, observed with the naked eye (Example 1)
Description: The term “soluble” means that the dyes form a uniform mixture, free of particles that are apparent to the naked eye, at 25° C. and 1 atmosphere, in a proportion of 0.05% by weight in the oily phase.
The solubility of a dye according to the invention in various silicone oils was studied. Several mixtures comprising 0.05% by weight of 3-phenyl-3-(4-piperidinophenyl)-6-morpholino-3H-naphtho[2,1-b]pyran (Reversacol Ruby from James Robinson) in various oils were thus prepared, and the mixture was then heated to 60° C. with stirring.

[4] = Visual colour change of the dye solution in phenylsilicone oil on UV (sunlight) irradiation (Example 2); conditions: 0.05% by weight in phenylsilicone oil DC556
Description: A solution comprising 0.05% by weight of 3-phenyl-3-(4-piperidinophenyl)-6-morpholino-3H-naphtho[2,1-b]pyran (Reversacol Ruby from James Robinson) in a phenylsilicone oil (DC556 from Dow Corning) was prepared. The mixture was then irradiated with UV (sunlight) for 2 minutes.

[5] = ΔE before/after UVA irradiation of wax-structured compositions, 50 micron film on contrast card, reflection (Examples 3 and 8)
Description: as §1, §2
The initial trichromatic coordinates of the composition before irradiation (L0, a0 and b0) were thus determined. The composition was then subjected to a UV irradiation (flux of 2 mW/cm^2 of a UVA radiation) for two minutes and then, immediately after stopping the irradiation, the trichromatic coordinates after irradiation (L, a and b) were determined. Less than 5 seconds elapsed between the stopping of the irradiation and the determination of the new coordinates.
The ΔE was then calculated in the following manner: ΔE=[(L−L0)^2+(a−a0)^2+(b−b0) ^2]^1/2
A composition was prepared, comprising: • 0.05% by weight of 3-phenyl-3-(4-piperidinophenyl)-6-morpholino-3H-naphtho[2,1-b]pyran (Reversacol Ruby from James Robinson), • 15% by weight of polyethylene wax (apolar wax), • qs 100% of phenylsilicone oil (DC556 from Dow Corning).
as §3
as §4, with “composition was” for “compositions were”
as §5
15% by weight of polyethylene wax (apolar wax) was added to the mixtures prepared in Example 6 (oils+0.05% by weight of Reversacol Ruby dye), and the trichromatic coordinates L, a and b were then measured, before and after irradiation with UV for 2 minutes (flux of 2 mW/cm^2 of UVA) on thin films of composition, 50 microns thick, poured onto a contrast card.
To do this, a Minolta 3700D spectrocolorimeter in reflection mode was used; less than 5 seconds elapsed between stopping the irradiation and determining the new coordinates.

[6] = Solvatochromism: ΔE′ of oil + dye mixture versus oil alone, transmission, no UV (Example 6); parameters: key: ΔE′ = √(ΔL²+Δa²+Δb²), oil alone vs oil+dye, transmission; conditions: without UV
Description: The trichromatic coordinates (Lh, ah and bh) of the oil alone and of the oil+dye mixture (Lm, am and bm) were thus determined, and the ΔE′ was calculated in the following manner: ΔE′=[Lh−Lm)^2+(ah−am)^2+(bh−bm)^2]^1/2.
To do this, a Minolta 3700D spectrocolorimeter in transmission mode was used, with a plastic cuvette (“cuvette walls+oil+optional dye” optical path length=1 cm).

[7] = 0.05% dye in Capric/caprylic acid triglyceride
[8] = 0.05% dye in Diisostearyl malate
[9] = 0.05% dye in Hydrogenated polyisobutene
[10] = 0.05% dye in Isononyl isononanoate
[11] = 0.05% dye in Tridecyl trimellitate

- ΔE [1]: 51
SMILES: COc1ccc(C2(c3ccc(OC)cc3)C=Cc3c(cc(N4CCOCC4)c4ccccc34)O2)cc1 [3,3-di(4-methoxyphenyl)-6-morpholino-3H-naphtho-[2,1-b]pyran]

- ΔE [1]: 53
SMILES: C1=CC(c2ccccc2)(c2ccc(N3CCOCC3)cc2)Oc2cc(N3CCOCC3)c3ccccc3c21 (stereo not drawn) [3-phenyl-3-(4-morpholinophenyl)-6-morpholino-3H-naphtho[2,1-b]pyran]

- ΔE [2, 7]: 23.70
- ΔE ([2]; 0.05% dye in Castor oil): 19.02
- ΔE [2, 8]: 38.79
- ΔE [2, 9]: 17.69
- ΔE ([2]; 0.05% dye in Isododecane): 19.17
- ΔE [2, 10]: 25.47
- ΔE ([2]; 0.05% dye in Octyldodecanol): 20.88
- ΔE [2, 11]: 13.74
- ΔE ([2]; 0.05% dye in Triisononanoin): 21.62
- Dissolution at elevated temperature (60° C.) ([3]; 0.05% by weight dye in Phenyltrimethylsiloxytrisiloxane (20 cSt) DC556 from Dow Corning): Total dissolution
- Dissolution at elevated temperature (60° C.) ([3]; 0.05% by weight dye in Polyphenyltrimethylsiloxydimethylsiloxane (1000 cSt) Belsil PDM 1000 from Wacker): Total dissolution
- Coloration of the solution of the dye (solvatochromic effect) ([3]; in the phenylsilicones, not for the other oils): pink coloration
- Dissolution in the other silicone-based media after cooling to room temperature ([3]; non-phenylated silicone media, room temperature): virtually undissolved
- Dissolution at elevated temperature in non-phenylated oils ([3]; non-phenylated silicone oils, elevated temperature): dissolves poorly
- Dissolution at elevated temperature in the phenylated oils ([3]; phenylated silicone oils, irrespective of viscosity, elevated temperature): complete
- Dissolution in phenylsilicones after cooling to room temperature ([3]; phenylsilicones, room temperature): virtually complete dissolution
- Initial coloration of the mixture before irradiation [4]: pink
- Coloration after irradiation ([4]; UV (sunlight) for 2 minutes): strong orange-red
- ΔE ([5]; 0.05% dye, 15% polyethylene wax, qs phenylsilicone oil DC556, UVA 2 mW/cm^2 for two minutes): 37.38
- ΔE ([5]; 15% wax + 0.05% dye in Castor oil, UVA 2 mW/cm^2 for 2 minutes, 50 micron film): 26.75
- ΔE ([5]; 15% wax + 0.05% dye in Diisostearyl malate, UVA 2 mW/cm^2 for 2 minutes, 50 micron film): 43.12
- ΔE ([5]; 15% wax + 0.05% dye in Hydrogenated polyisobutene, UVA 2 mW/cm^2 for 2 minutes, 50 micron film): 18.36
- ΔE ([5]; 15% wax + 0.05% dye in Isododecane, UVA 2 mW/cm^2 for 2 minutes, 50 micron film): 27.21
- ΔE ([5]; 15% wax + 0.05% dye in Isononyl isononanoate, UVA 2 mW/cm^2 for 2 minutes, 50 micron film): 27.74
- ΔE ([5]; 15% wax + 0.05% dye in Octyldodecanol, UVA 2 mW/cm^2 for 2 minutes, 50 micron film): 31.09
- ΔE ([5]; 15% wax + 0.05% dye in Tridecyl trimellitate, UVA 2 mW/cm^2 for 2 minutes, 50 micron film): 31.98
- ΔE ([5]; 15% wax + 0.05% dye in Triisononanoin, UVA 2 mW/cm^2 for 2 minutes, 50 micron film): 33.70
- ΔE′ of the oil + dye mixture [6, 7]: 12.4093
- ΔE′ of the oil + dye mixture ([6]; 0.05% dye in Castor oil): 33.6278
- ΔE′ of the oil + dye mixture [6, 8]: 12.9041
- ΔE′ of the oil + dye mixture [6, 9]: 6.6920
- ΔE′ of the oil + dye mixture ([6]; 0.05% dye in Isododecane): 4.2421
- ΔE′ of the oil + dye mixture [6, 10]: 7.7386
- ΔE′ of the oil + dye mixture ([6]; 0.05% dye in Octyldodecanol): 37.6049
- ΔE′ of the oil + dye mixture [6, 11]: 14.2178
- ΔE′ of the oil + dye mixture ([6]; 0.05% dye in Triisononanoin): 12.8122
- ΔE [1]: 49
SMILES: C1=CC(c2ccccc2)(c2ccc(N3CCCCC3)cc2)Oc2cc(N3CCOCC3)c3ccccc3c21 (stereo not drawn) [Reversacol Ruby, 3-phenyl-3-(4-piperidinophenyl)-6-morpholino-3H-naphtho[2,1-b]pyran]
